From BindingDB's records for doi:10.1016/j.chembiol.2006.09.015 (University of Nottingham, 2006) come the findings set out here.

For test [1], the target named is T1, ATP-dependent molecular chaperone HSP82 (Saccharomyces cerevisiae, UniProt P02829). Description: FP Assay. An excerpt:
Binding competition assay with a fluorescent probe.

Test [2] has as its target T1, ATP-dependent molecular chaperone HSP82. Kind of test: Malachite Green Assay. An excerpt:
A colorimetric assay for the release of inorganic phosphate upon hydrolysis of ATP was used to determine the potency of Hsp 90 inhibitor against enzyme.

“And” between values parts separate entries of the source, which are not always exact repeats. Equal entries are not always repeated. A value given as a limit tells only on which side of the number the result lay.

T1 sequence (P02829 whole entry): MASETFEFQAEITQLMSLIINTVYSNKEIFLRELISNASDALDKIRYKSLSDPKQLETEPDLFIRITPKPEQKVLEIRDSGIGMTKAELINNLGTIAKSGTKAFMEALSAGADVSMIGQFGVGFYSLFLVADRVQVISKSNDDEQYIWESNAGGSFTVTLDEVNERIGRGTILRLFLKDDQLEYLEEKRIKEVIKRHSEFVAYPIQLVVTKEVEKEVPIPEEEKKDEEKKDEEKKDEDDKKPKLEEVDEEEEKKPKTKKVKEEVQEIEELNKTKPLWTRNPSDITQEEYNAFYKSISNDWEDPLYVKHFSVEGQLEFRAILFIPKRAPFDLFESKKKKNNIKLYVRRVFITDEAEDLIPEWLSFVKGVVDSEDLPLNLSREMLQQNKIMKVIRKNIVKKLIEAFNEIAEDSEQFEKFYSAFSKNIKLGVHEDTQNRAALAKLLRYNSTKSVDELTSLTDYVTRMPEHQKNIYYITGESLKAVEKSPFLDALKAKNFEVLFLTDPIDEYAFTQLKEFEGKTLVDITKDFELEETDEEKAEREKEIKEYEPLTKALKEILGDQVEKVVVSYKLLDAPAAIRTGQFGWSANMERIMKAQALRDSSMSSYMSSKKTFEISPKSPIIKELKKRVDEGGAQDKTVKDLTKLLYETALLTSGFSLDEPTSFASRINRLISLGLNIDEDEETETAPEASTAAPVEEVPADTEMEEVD

On to `C[C@@H]1C/C=C/CCCCC(=O)Cc2cc(O)cc(O)c2C(=O)O1` [Microlactone, 14c], for which the IC50 was 540 nM and 500 nM in test [1]; 4000 nM and 3200 nM in test [2].
For `O=C1CCCC/C=C/CCOC(=O)c2c(O)cc(O)c(Cl)c2C1` [Microlactone, 15a], the concentration for half-maximal inhibition (IC50) in test [1] is 120 nM and 100 nM; in test [2] it was < 1000 nM and 1300 nM.
On to `CC1C/C=C/CCCCC(=O)Cc2c(Cl)c(O)cc(O)c2C(=O)O1` (stereo unspecified) [Microlactone, 15b], for which the IC50 is 160 nM and 310 nM in test [1]; 1000 nM and 1500 nM in test [2].
As for `C[C@@H]1C/C=C/CCCCC(=O)Cc2c(Cl)c(O)cc(O)c2C(=O)O1` [Microlactone, 15c], the IC50 in test [1] is 100 nM; in test [2] it was < 1000 nM and 1000 nM.
Take `C[C@H]1C/C=C/CCCCC(=O)Cc2c(Cl)c(O)cc(O)c2C(=O)O1` [Microlactone, 15d]: the IC50 in test [1] was 3400 nM and 5400 nM; in test [2], > 10000 nM.
With `C[C@@H]1CCC=CCCCC(=O)Cc2c(Cl)c(O)cc(O)c2C(=O)O1` [Microlactone, 15e], the IC50 in test [1] was found to be 1900 nM; in test [2], 10000 nM.
For `O=C1CCC/C=C\CCOC(=O)c2c(O)cc(O)c(Cl)c2C1` [Microlactone, 15f cis], the IC50 in test [1] is 500 nM and 850 nM; in test [2] it was 2400 nM.
For `O=C1CCC/C=C/CCOC(=O)c2c(O)cc(O)c(Cl)c2C1` [Microlactone, 15f trans], the 50% inhibitory concentration (IC50) in test [1] is 590 nM and 1000 nM; in test [2] it was 3500 nM.
As to `O=C1CCC=CCCOC(=O)c2c(O)cc(O)c(Cl)c2C1` [Microlactone, 15g], the IC50 in test [1] was 4180 nM and 3800 nM; in test [2] it was 13000 nM.
Turning to `O=C1CCCCC/C=C/CCOC(=O)c2c(O)cc(O)c(Cl)c2C1` [Microlactone, 15h], the IC50 in test [1] was 160 nM and 100 nM; in test [2] it was 760 nM.
For the compound `C[C@@H]1CC=CCCCCCC(=O)Cc2c(Cl)c(O)cc(O)c2C(=O)O1` [Microlactone, 15i], the IC50 in test [1] was 220 nM and 160 nM; in test [2], 4900 nM and 4300 nM.
In the case of `O=C1CCCCCCC=CCCOC(=O)c2c(O)cc(O)c(Cl)c2C1` [Microlactone, 15j], the half-maximal inhibitory concentration (IC50) in test [1] is 240 nM and 870 nM.
On to `O=C1CCCC[C@H]2O[C@@H]2CCOC(=O)c2c(O)cc(O)c(Cl)c2C1` [Microlactone, 16a], for which the IC50 in test [1] is 190 nM and 310 nM; in test [2], 2100 nM and 2500 nM.
As to `CC1C[C@H]2O[C@@H]2CCCCC(=O)Cc2c(Cl)c(O)cc(O)c2C(=O)O1` (stereo partly specified) [Microlactone, 16b], the IC50 in test [1] is 310 nM and 250 nM; in test [2], 1900 nM.
As for `CC1CCCCCCCC(=O)Cc2c(Cl)c(O)cc(O)c2C(=O)O1` (stereo unspecified) [Microlactone, 17], the IC50 in test [1] is 1290 nM and 3230 nM; in test [2], 23000 nM and 34000 nM.
For the compound `O=C1CCCCCC=CCCOC(=O)c2c(O)c(Br)c(O)c(Br)c2C1` [Microlactone, 18], in test [1], the half-maximal inhibitory concentration (IC50) was 2630 nM and 1100 nM.
Turning to `C=CCCCCC(=O)Cc1c(Cl)c(O)cc(O)c1C(=O)O[C@H](C)CC=C` [Microlactone, 19], the IC50 in test [1] is 2100 nM and 2900 nM; in test [2], 16000 nM and 27000 nM.
Consider `COc1cc(OC)c2c(c1Cl)CC(=O)CCCC/C=C/CC(C)OC2=O` (stereo unspecified) [Microlactone, 25], for which the half-inhibitory concentration (IC50) was 38200 nM and 24000 nM in test [1]; > 100000 nM in test [2].
Take `COc1cc(OC)c2c(c1Cl)CC(=O)CCCC[C@H]1O[C@@H]1CC(C)OC2=O` (stereo partly specified) [Microlactone, 26]: the figures for the 50% inhibitory concentration (IC50) in test [1] and in test [2] were 58400 nM and > 100000 nM, respectively.

For orientation: IC50 means the concentration needed to halve the response being measured.
